# Data published in patent publication US20220177471A1, “N-1 BRANCHED ALKYL SUBSTITUTED IMIDAZO[4,5-C]QUINOLINE COMPOUNDS, COMPOSITIONS, AND METHODS” (3M INNOVATIVE PROPERTIES COMPANY, priority 2019, published 2022).
# Target: T1, human TLR8 (Homo sapiens, UniProt Q9NR97)
# T1 construct: host or cells: HEK293 (HEK-BLUE-hTLR8)
# T1 sequence (Q9NR97 27-1041): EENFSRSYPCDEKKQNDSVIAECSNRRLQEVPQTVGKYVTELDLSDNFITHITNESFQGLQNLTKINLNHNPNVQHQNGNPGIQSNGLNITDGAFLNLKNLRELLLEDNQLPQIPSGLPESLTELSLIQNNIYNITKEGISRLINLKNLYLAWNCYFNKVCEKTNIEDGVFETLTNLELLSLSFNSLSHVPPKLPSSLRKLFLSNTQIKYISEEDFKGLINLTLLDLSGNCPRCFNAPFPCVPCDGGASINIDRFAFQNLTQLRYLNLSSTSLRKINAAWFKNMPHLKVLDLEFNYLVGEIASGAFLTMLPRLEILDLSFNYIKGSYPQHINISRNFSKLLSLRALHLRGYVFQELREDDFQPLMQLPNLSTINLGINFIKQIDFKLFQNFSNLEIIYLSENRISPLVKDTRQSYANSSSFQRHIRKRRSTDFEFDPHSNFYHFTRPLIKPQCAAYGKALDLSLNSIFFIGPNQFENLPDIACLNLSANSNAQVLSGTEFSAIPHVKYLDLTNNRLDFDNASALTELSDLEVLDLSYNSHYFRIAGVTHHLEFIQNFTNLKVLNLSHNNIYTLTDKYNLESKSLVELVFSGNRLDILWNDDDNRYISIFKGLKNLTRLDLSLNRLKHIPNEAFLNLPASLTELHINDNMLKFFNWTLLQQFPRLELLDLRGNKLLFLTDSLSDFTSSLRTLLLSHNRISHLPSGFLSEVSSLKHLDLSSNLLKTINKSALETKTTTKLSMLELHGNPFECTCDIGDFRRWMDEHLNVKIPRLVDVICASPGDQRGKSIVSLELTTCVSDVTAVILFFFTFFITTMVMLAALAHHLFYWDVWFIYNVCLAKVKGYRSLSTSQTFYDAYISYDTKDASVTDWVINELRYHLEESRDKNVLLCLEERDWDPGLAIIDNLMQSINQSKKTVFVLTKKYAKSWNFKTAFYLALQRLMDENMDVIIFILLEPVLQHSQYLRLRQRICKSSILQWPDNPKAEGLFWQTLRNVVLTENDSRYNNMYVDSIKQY
# Test: TLR activation, HEK-BLUE-hTLR8 SEAP reporter cells
# Format: cell-based
# Details: 16-20 hours, lowest concentration giving SEAP response at least 2x vehicle control, tested 0.01-30 micromolar
# Protocol: HEK-BLUE-hTLR7 or hTLR8 reporter cells were obtained from InvivoGen, San Diego, Calif. According to the manufacturer's description, these reporter cells were prepared by co-transfection of HEK293 cells with an inducible secreted embryonic alkaline phosphatase (SEAP) reporter gene and either the human TLR7 or TLR8 gene. The SEAP reporter gene was placed under the control of an IFN-β minimal promoter fused to five NF-κB and AP-1-binding sites. In the presence of a TLR ligand, activation of NF-κB and AP-1 occurs, resulting in a corresponding increase in SEAP levels.
# In the assay, the HEK cells were grown and maintained using standard cell culture techniques in a growth medium that contained Dulbecco's Modified Eagle Medium (ThermoFisher Scientific Incorporated, Waltham, Mass.) supplemented with 1% penicillin/streptomycin and 10% heat-inactivated Gibco fetal bovine serum (ThermoFisher Scientific). Each compound was solubilized in DMSO to create a 3 mM stock solution. The stock solution was then further diluted with the growth medium to prepare serial dilutions. Each test compound was tested at a concentration of 30, 10, 3.3, 1.1, 0.37, 0.12, 0.04, and 0.01 micromolar using a 96-well format with 5×10^4 cells and 200 microliters of growth medium per well.
# For each compound, hTLR7, hTLR8, and their respective null control HEK cells were screened. DMSO serially diluted into the growth medium served as the vehicle control. Cell culture supernatants containing the SEAP reporter were collected after an incubation period of 16-20 hours in a cell culture incubator (37° C. and 5% CO2), and either analyzed immediately or stored at −80° C. SEAP levels were measured using the colorimetric enzyme assay (QUANTI-BLUE (InvivoGen) according to manufacturer's instructions.
# Specifically, the minimum effective concentration of each compound (micromolar) was determined as the lowest concentration of the compound that produced a SEAP expression response at least 2× greater than that observed with the vehicle control wells.
row,MEC to Produce TLR Activation: TLR 8,Structure (SMILES)
1,>30 µM,"C[C@@H](n1cnc2c(N)nc3ccccc3c21)C(C)(C)C [Example 3, 1-[(1R)-1,2,2-trimethylpropyl]imidazo[4,5-c]quinolin-4-amine]"
2,>30 µM,"C[C@@H](n1cnc2c(N)nc3ccccc3c21)C(C)(C)O [Example 9, (3R)-3-(4-aminoimidazo[4,5-c]quinolin-1-yl)-2-methyl-butan-2-ol]"
3,10 µM,"CCCC[C@@H](n1cnc2c(N)nc3ccccc3c21)C(C)(C)O [Example 15, (3R)-3-(4-aminoimidazo[4,5-c]quinolin-1-yl)-2-methyl-heptan-2-ol]"
4,>30 µM,"CC(C)Cn1cnc2c(N)nc3ccccc3c21 [Comparative Example 1, 1-isobutylimidazo[4,5-c]quinolin-4-amine, reference compound]"
5,10 µM,"CCC[C@@H](n1cnc2c(N)nc3ccccc3c21)C(C)(C)O [Example 13, (3R)-3-(4-aminoimidazo[4,5-c]quinolin-1-yl)-2-methyl-hexan-2-ol]"
6,>30 µM,"C[C@H](n1cnc2c(N)nc3ccccc3c21)C(C)(C)C [Example 4, 1-[(1S)-1,2,2-trimethylpropyl]imidazo[4,5-c]quinolin-4-amine]"
7,>30 µM,"CCCC[C@H](n1cnc2c(N)nc3ccccc3c21)C(C)(C)O [Example 16, (3S)-3-(4-aminoimidazo[4,5-c]quinolin-1-yl)-2-methyl-heptan-2-ol]"
8,>30 µM,"C[C@@H](C1CCCCC1)n1cnc2c(N)nc3ccccc3c21 [Example 6, 1-[(1S)-1-cyclohexylethyl]imidazo[4,5-c]quinolin-4-amine]"
9,>30 µM,"CC(C)[C@@H](C)n1cnc2c(N)nc3ccccc3c21 [Example 1, 1-[(1R)-1,2-dimethylpropyl]imidazo[4,5-c]quinolin-4-amine]"
10,>30 µM,"CCC(O)(CC)[C@@H](C)n1cnc2c(N)nc3ccccc3c21 [Example 19, (2R)-2-(4-aminoimidazo[4,5-c]quinolin-1-yl)-3-ethyl-pentan-3-ol]"
11,>30 µM,"CC[C@@H](n1cnc2c(N)nc3ccccc3c21)C(C)(C)O [Example 11, (3R)-3-(4-aminoimidazo[4,5-c]quinolin-1-yl)-2-methyl-pentan-2-ol]"
12,>30 µM,"CC[C@H](n1cnc2c(N)nc3ccccc3c21)C(C)(C)O [Example 12, (3S)-3-(4-aminoimidazo[4,5-c]quinolin-1-yl)-2-methyl-pentan-2-ol]"
13,>30 µM,"C[C@H](C1CCCCC1)n1cnc2c(N)nc3ccccc3c21 [Example 5, 1-[(1R)-1-cyclohexylethyl]imidazo[4,5-c]quinolin-4-amine]"
14,>30 µM,"CCCC[C@H](C(C)C)n1cnc2c(N)nc3ccccc3c21 [Example 7, 1-[(1R)-1-isopropylpentyl]imidazo[4,5-c]quinolin-4-amine]"
15,>30 µM,"CC(C)(O)Cn1cnc2c(N)nc3ccccc3c21 [Comparative Example 2, 1-(4-aminoimidazo[4,5-c]quinolin-1-yl)-2-methyl-propan-2-ol, reference compound]"
16,>30 µM,"CC(C)[C@H](C)n1cnc2c(N)nc3ccccc3c21 [Example 2, 1-[(1S)-1,2-dimethylpropyl]imidazo[4,5-c]quinolin-4-amine]"
17,>30 µM,"CCCC[C@@H](n1cnc2c(N)nc3ccccc3c21)C(C)(C)C [Example 8, 1-[(1R)-1-tert-butylpentyl]imidazo[4,5-c]quinolin-4-amine]"
18,>30 µM,"C[C@H](n1cnc2c(N)nc3ccccc3c21)C(C)(C)O [Example 10, (3S)-3-(4-aminoimidazo[4,5-c]quinolin-1-yl)-2-methyl-butan-2-ol]"
19,>30 µM,"CC(C)C[C@@H](n1cnc2c(N)nc3ccccc3c21)C(C)(C)O [Example 17, (3R)-3-(4-aminoimidazo[4,5-c]quinolin-1-yl)-2,5-dimethyl-hexan-2-ol]"
20,>30 µM,"CCC[C@H](n1cnc2c(N)nc3ccccc3c21)C(C)(C)O [Example 14, (3S)-3-(4-aminoimidazo[4,5-c]quinolin-1-yl)-2-methyl-hexan-2-ol]"
21,>30 µM,"CC(C)C[C@H](n1cnc2c(N)nc3ccccc3c21)C(C)(C)O [Example 18, (3S)-3-(4-aminoimidazo[4,5-c]quinolin-1-yl)-2,5-dimethyl-hexan-2-ol]"
22,>30 µM,"C[C@H](n1cnc2c(N)nc3ccccc3c21)C(C)(C)F [Example 21, 1-[(1S)-2-fluoro-1,2-dimethyl-propyl]imidazo[4,5-c]quinolin-4-amine]"
23,>30 µM,"C[C@@H](n1cnc2c(N)nc3ccccc3c21)C(C)(C)F [Example 20, 1-[(1R)-2-fluoro-1,2-dimethyl-propyl]imidazo[4,5-c]quinolin-4-amine]"
